Test results as given in patent US20180084782A1, “METHOD OF CONTROL OF STINKBUGS” (Syngenta Participations AG, priority 2015, published 2018).
Where two headings read alike, the source gives them in different places.

Tested on: Euschistus heros (neotropical brown stink bug)
Test: Insecticidal activity against Euschistus heros: contact/feeding activity on sprayed soybean plants
Format: in vivo
Details: 120 h
Procedure: Insecticidal activity against Euschistus heros (neotropical brown stink bug): contact/feeding activity of compounds 1 and 3 according to the invention and 2 and 4 as comparison:
Two week old soybean plants were sprayed in a turn table spray chamber with the diluted spray solutions. After drying, two soybean seeds were added and plants were infested with ten N-2 nymphs of the neotropical brown stink bug Euschistus heros in plastic test boxes. Boxes were incubated in a climate chamber at 25° C. and 60% relative humidity. Evaluation is done 5 days after infestation on mortality and growth effect.

[1] = 0.2 ppm spray, N-2 nymphs on soybean plants, evaluation 5 days after infestation, read-out: Mortality (%)
[2] = 0.8 ppm spray, N-2 nymphs on soybean plants, evaluation 5 days after infestation, read-out: Mortality (%)
[3] = 3 ppm spray, N-2 nymphs on soybean plants, evaluation 5 days after infestation, read-out: Mortality (%)

Row | SMILES | mortality at 0.2 ppm [1] [%] | mortality at 0.8 ppm [2] [%] | mortality at 3 ppm [3] [%] | mortality at 0.0125 ppm [%] | mortality at 0.05 ppm [%] | mortality at 0.2 ppm [%] | mortality at 0.8 ppm [%] | mortality at 3 ppm [%] | mortality at 0.0125 ppm (0.0125 ppm spray, N-2 nymphs on soybean plants, evaluation 5 days after infestation, read-out: Mortality (%)) [%] | mortality at 0.05 ppm (0.05 ppm spray, N-2 nymphs on soybean plants, evaluation 5 days after infestation, read-out: Mortality (%)) [%]
1 | Cn1nc(C(F)(F)C(F)(F)F)c(C(F)(F)F)c1-n1cc(-c2ccc(Cl)c(C(=O)NC3(C#N)CC3)c2)nn1 [Compound 4, reference compound] | 0 | 20 | 95 |  |  |  |  |  |  | 
2 | Cn1nc(C(F)(F)C(F)(F)F)c(C(F)(F)F)c1-n1cc(-c2ccc(Cl)c(C(=O)NC3(C#N)CC3)c2)cn1 [Compound 3] |  |  |  | 15 | 35 | 95 | 95 | 100 |  | 
3 | Cn1nc(C(F)(F)C(F)(F)F)c(C(F)(F)F)c1-n1cc(-c2ccc(Cl)c(C(=O)NC3CC3)c2)cn1 [Compound 1] |  |  |  | 35 | 50 | 95 | 100 | 100 |  | 
4 | Cn1nc(C(F)(F)C(F)(F)F)c(C(F)(F)F)c1-n1cc(-c2ccc(Cl)c(C(=O)NC3CC3)c2)nn1 [Compound 2, reference compound] | 20 | 35 | 100 |  |  |  |  |  | 0 | 10
